In patent US8828997B2, “2,3-dihydro-1H-imidazo(1,2-a)pyrimidin-5-one derivatives, preparation thereof, and pharmaceutical use thereof” (Sanofi, priority 2009, dated 2014):

Legend:
Assay type in all cases: cell-based
[1] = tested on: translocation of the LC3 protein in Hela GFP-LC3 cells; experiment: Translocation of the LC3 protein in Hela human cells measured by image analysis cytometry (test C, autophagy); conditions: Homo sapiens, HeLa, 2 h, EBSS + 10 μM hydroxychloroquine, cells with LC3 granulations, absolute IC50
In short: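 HeLa clone stably expressing GFP-LC3, starved in EBSS with 10 μM hydroxychloroquine plus compound (10 nM to 1 μM range, 0.1% DMSO) for 2 h at 37 °C. After PFA fixation and Hoechst staining, LC3 translocation read by image analysis cytometry; IC50 from dose-response curves, mean of 2 independent experiments.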

[2] = tested on: AKT protein phosphorylated on serine 473 (pAKT-S473) in PC3 human prostate carcinoma cells; experiment: pAKT expression in PC3 human prostate carcinoma cells measured by western blotting (test A); conditions: PC-3, 1 to 2 h incubation, absolute IC50
Protocol: The inhibitory activity of the molecules on AKT phosphorylation is measured either by western blotting using the technique described below, or by the MSD Multi-spot Biomarker detection technique from Meso Scale Discovery also described below.
Study of pAKT Expression in PC3 Human Prostate Carcinoma Cells Measured by Western Blotting (test A):
This test is based on measuring the expression of the AKT protein phosphorylated on serine 473. The phosphorylation of AKT (pAKT) is measured by western blotting in the PC3 human prostate carcinoma line (ATCC CRL-1435), using an antibody that specifically recognises pAKT-S473.
On day 1, the PC3 cells are seeded into 6-well plates (TPP, #92006) at the concentration of 0.8×10^6 cells/well in 1800 μl of DMEM medium (DMEM Gibco #11960-044) containing 10% of foetal calf serum (SVF Gibco, #10500-056) and 1% glutamine (L-Glu Gibco #25030-024), and incubated at 37° C., 5% CO2, overnight.
On day 2, the cells are incubated in the presence or absence of the test products for 1 to 2 hours at 37° C. in the presence of 5% CO2. The molecules, diluted in dimethyl sulphoxide (DMSO Sigma #D2650), are added from a 10-times concentrated stock solution, the final percentage of DMSO being 0.1%. The molecules are tested either at a single concentration of less than or equal to 10 μM, or at increasing concentrations in a range that can extend from less than 1 nM to 10 μM.
After this incubation, the cells are lysed for the preparation of the proteins. After the culture medium has been drawn off, the cells are rinsed with 1 ml of PBS (DPBS Gibco, #14190-094), recovered by scraping in 200 μl of complete HNTG buffer and transferred into a 96-well plate (Greiner #651201), and lysed for 1 h on ice. The HNTG buffer is composed of the following mixture: 50 mM hepes, 150 mM NaCl, 1% triton, 10% glycerol, with extemporaneous addition of one Mini Protease Inhibitor Cocktail tablet (Roche 1836153) and of one Phosphatase Inhibitor Cocktail tablet (Roche104906837001) per 10 ml of buffer.
The lysate is centrifuged for 10 min at 6000 rpm. 155 μl of supernatant are recovered. 150 μl are incubated for denaturation for 5 min at 95° C. in the presence of 4× NuPAGE LDS Sample Buffer diluted 4-fold (InVitrogen ref NP0007) and of 10× NuPAGE Sample Reducing Agent diluted 10-fold (InVitrogen ref NP0009). These samples are then frozen at −20° C. 5 μl are assayed by the microBCA technique according to the technical bulletin of the MicroBCA Protein Assay Kit (Pierce #23235).
For protein separation, 20 μg of proteins are loaded on to a NU-PAGE 4-12% Bis Tris Gel 12 well (InVitrogen ref NP0322BOX) and the migration is carried out for 1 h 30 in 20× NU-PAGE MOPS SDS Running Buffer diluted 20-fold (InVitrogen ref NP0001), at 150 volts.
The gel is then transferred on to an Invitrolon PVDF membrane (Invitrogen #LC2007) permeabilised before and after a few seconds in ethanol (Ethanol Fischer Scientific #E/0600DF/15).
The transfer is carried out in a Biorad tank at 30 volts overnight or at 60 volts for 3 hours, in the presence of 20× NUPAGE Transfer Buffer diluted 20-fold (InVitrogen ref NP0006).
The membrane is then saturated in saturating solution composed of TBS (10× Tris Buffered Saline, Sigma #T5912, diluted 10-fold), 0.1% Tween 20 (Sigma #P5927) and 3% BSA (Bovine Albumin Serum Fraction V, Sigma #A4503) for 6 h after overnight transfer or else for 1 h after transfer for a period of 3 h.
The primary antibodies are diluted to 1/1000 for the anti-phospho AKT-Ser473 antibody (1931-12, rabbit monoclonal, cat#4058 from Cell Signaling Technology Abcam), in saturating solution composed of PBS, 0.1% Tween 20 and 3% BSA, and then shaken overnight at 4° C.
Two rinses for 5 min in washing solution composed of TBS and 0.1% Tween 20 are carried out before hybridisation of the secondary antibodies. […]

[3] = tested on: P. falciparum (highly chloroquine-resistant strain Fcm29-Cameroon); experiment: Antimalarial activity test (radioactive micromethod of Desjardins, tritiated hypoxanthine incorporation); conditions: Plasmodium falciparum, Erythrocyte, infected human erythrocytes, 48 h
In short: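 P. falciparum cultured in infected human erythrocytes (2% haematocrit, 1.5% parasitaemia) in RPMI 1640 with 5% human serum and 1% DMSO, exposed to compound for 48 h at 37 °C, 5% CO2. Tritiated hypoxanthine added at 24 h; growth inhibition versus drug-free incorporation, reported as % at 1 μM and 0.1 μM.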

| SMILES | IC50 [1] [nM] | IC50 [2] [nM] | inhibition at 0.1 µM [3] [%] | inhibition at 1 µM [3] [%] |
| --- | --- | --- | --- | --- |
| CC(Cc1ccccc1)N1c2nc(N3CCOCC3)cc(=O)n2C[C@@]1(C)C(F)(F)F (single isomer, unassigned) [Example 12, (2S)-2-Methyl-1-((R) or (S)-1-methyl-2-phenylethyl)-7-morpholin-4-yl-2-trifluoromethyl-2,3-dihydro-1H-imidazo[1,2-a]pyrimidin-5-one] | 194 | 77 | – | – |
| C[C@@]1(C(F)(F)F)Cn2c(nc(N3CCOCC3)cc2=O)N1C[C@@H](O)c1ccccc1 [Example 10] | 31 | 16 | 38 | 97 |
| C[C@@H](CN1c2nc(N3CCOCC3)cc(=O)n2C[C@@]1(C)C(F)(F)F)c1ccccc1 [Example 8, (S)-2-Methyl-7-morpholin-4-yl-1-((R)-2-phenylpropyl)-2-trifluoromethyl-2,3-dihydro-1H-imidazo[1,2-a]pyrimidin-5-one] | 13 | 15 | – | – |
| C[C@@]1(C(F)(F)F)Cn2c(nc(N3CCOCC3)cc2=O)N1CCOc1ccccc1 [Example 6, (S)-2-Methyl-7-morpholin-4-yl-1-(2-phenoxyethyl)-2-trifluoromethyl-2,3-dihydro-1H-imidazo[1,2-a]pyrimidin-5-one] | 81 | 1640 | – | – |
| COc1ccc(CCN2c3nc(N4CCOCC4)cc(=O)n3CC2(C)C(F)(F)F)cc1 (racemic) [Example 2, (R,S)-1-[2-(4-methoxyphenyl)ethyl]-2-methyl-7-(morpholin-4-yl)-2-(trifluoromethyl)-2,3-dihydroimidazo[1,2-a]pyrimidin-5(1H)-one] | 145 | 324 | – | – |
| C[C@@]1(C(F)(F)F)Cn2c(nc(N3CCOCC3)cc2=O)N1CCc1ccccc1 [Example 4, (S)-2-Methyl-7-morpholin-4-yl-1-phenethyl-2-trifluoromethyl-2,3-dihydro-1H-imidazo[1,2-a]pyrimidin-5-one] | 107 | 25 | 54 | 97 |
| C[C@@]1(C(F)(F)F)Cn2c(nc(N3CCOCC3)cc2=O)N1Cc1ccccc1 [Example 3, (S)-1-Benzyl-2-methyl-7-morpholin-4-yl-2-trifluoromethyl-2,3-dihydro-1H-imidazo[1,2-a]pyrimidin-5-one] | 493 | 634 | 15 | 95 |
| C[C@@]1(C(F)(F)F)Cn2c(nc(N3CCOCC3)cc2=O)N1CCc1ccc(N2CCOCC2)cc1 [Example 15, (S)-2-Methyl-7-morpholin-4-yl-1-[2-(4-morpholin-4-ylphenyl)ethyl]-2-trifluoromethyl-2,3-dihydro-1H-imidazo[1,2-a]pyrimidin-5-one] | 72 | 121 | 39 | 101 |
